In patent US20100317850A1 (priority 2008, published 2010):

These compounds were tested on Aβ42 production (assay: Quantification of Aβ peptide in culture of neurons from rat fetus brain (Aβ ELISA)). Conditions: Neuron, 72 h; rat primary neuronal culture (cerebral cortex, embryonic day 18 Wistar rats); medium collected three days after addition of the compound; Aβx-42 ELISA; read-out: Aβ42 production reducing effect IC50.
Assay type: cell-based
Method in brief: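 Primary cortical neurons from embryonic day 18 Wistar rats were cultured 4 days, then exposed to compound in Neurobasal/B27 without 2-ME, final DMSO ≤1%. After three days, medium was collected and Aβx-42 measured undiluted by sandwich ELISA.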
With `NC1=N[C@@]2(c3cc(NC(=O)c4cnc(C(F)F)cn4)ccc3F)CCC[C@H]2CS1` (single isomer, unassigned) [Example 191, N-[3-((4aR*,7aS*)-2-amino-4a,5,6,7-tetrahydro-4H-cyclopenta[d][1,3]thiazin-7a-yl)-4-fluorophenyl]-5-difluoromethylpyrazine-2-carboxamide] the IC50 was 9 nM.
With `C[C@H]1OC[C@]2(c3cc(NC(=O)c4cnc(OC(F)F)cn4)ccc3F)N=C(N)SC[C@H]12` (relative stereo) [Example 55, N-[3-((4aS*,5R*,7aS*)-2-amino-5-methyl-4a,5-dihydro-4H-furo[3,4-d][1,3]thiazin-7a-yl)-4-fluorophenyl]-5-difluoromethoxypyrazine-2-carboxamide] the IC50 was 1.1 nM.
`NC1=N[C@@]2(c3cc(NC(=O)c4ncccc4Br)ccc3F)CCCCC[C@H]2CS1` [Example 253] gave an IC50 of 171 nM.
Work on `N#Cc1ccc(C(=O)Nc2ccc(F)c([C@]34C[C@@H](F)C[C@H]3CSC(N)=N4)c2)nc1` (relative stereo) [Example 110, (+)-N-[3-((4aR*,6S*,7aS*)-2-amino-6-fluoro-4a,5,6,7-tetrahydro-4H-cyclopenta[d][1,3]thiazin-7a-yl)-4-fluorophenyl]-5-cyanopyridine-2-carboxamide] yielded an IC50 of 5 nM.
In the case of `NC1=N[C@@]2(c3cc(NC(=O)c4ccc(Cl)cn4)ccc3F)CCOC[C@H]2CS1` (relative stereo) [Example 30, N-[3-((4aS*,8aS*)-2-amino-4a,5,7,8-tetrahydro-4H-6-oxa-3-thia-1-azanaphthalen-8a-yl)-4-fluorophenyl]-5-chloropyridine-2-carboxamide], the IC50 is reported as 11 nM.
`NC1=N[C@@]2(c3cc(NC(=O)c4ccc(C(F)(F)F)cn4)ccc3F)CCC[C@H]2CS1` (single isomer, unassigned) [Example 169, N-[3-((4aR*,7aS*)-2-amino-4a,5,6,7-tetrahydro-4H-cyclopenta[d][1,3]thiazin-7a-yl)-4-fluorophenyl]-5-trifluoromethylpyridine-2-carboxamide] was tested, and the IC50 was 27 nM.
`CO[C@@H]1CC[C@]2(c3cc(NC(=O)c4ccc(C#N)cn4)ccc3F)N=C(N)SC[C@H]12` (relative stereo) [Example 65, N-[3-((4aS*,5R*,7aS*)-2-amino-5-methoxy-4a,5,6,7-tetrahydro-4H-cyclopenta[d][1,3]thiazin-7a-yl)-4-fluorophenyl]-5-cyanopyridine-2-carboxamide] showed an IC50 of 38 nM.
Work on `NC1=N[C@@]2(c3cc(NC(=O)c4nc5ccccc5s4)ccc3F)CCCC[C@H]2CS1` [Example 223] yielded an IC50 of 316 nM.
Compound `CO[C@H]1CC[C@]2(c3cc(NC(=O)c4ccc(C#N)cn4)ccc3F)N=C(N)SC[C@H]12` (relative stereo) [Example 63, N-[3-((4aS*,5S*,7aS*)-2-amino-5-methoxy-4a,5,6,7-tetrahydro-4H-cyclopenta[d][1,3]thiazin-7a-yl)-4-fluorophenyl]-5-cyanopyridine-2-carboxamide] has an IC50 of 11 nM.
`NC1=N[C@@]2(c3cc(NC(=O)c4cnc(OC(F)F)cn4)ccc3F)CCO[C@H](CF)[C@H]2CS1` (relative stereo) [Example 145, N-[3-((4aS*,5S*,8aS*)-2-amino-5-fluoromethyl-4a,5,7,8-tetrahydro-4H-6-oxa-3-thia-1-azanaphthalen-8a-yl)-4-fluorophenyl]-5-difluoromethoxypyrazine-2-carboxamide] gave an IC50 of 3 nM.
`NC1=N[C@@]2(c3cc(NC(=O)c4ccc(C5CC5)cn4)ccc3F)CCC[C@H]2CS1` [Example 134] showed an IC50 of 86 nM.
`NC1=N[C@@]2(c3cc(NC(=O)c4ncc(Cl)cc4Cl)ccc3F)CCOC[C@H]2CS1` (single isomer, unassigned) [Example 185, N-[3-((4aS*,8aS*)-2-amino-4a,5,7,8-tetrahydro-4H-6-oxa-3-thia-1-azanaphthalen-8a-yl)-fluorophenyl]-3,5-dichloropyridine-2-carboxamide] was tested, and the IC50 was 10 nM.
With `NC1=N[C@@]2(c3cc(NC(=O)c4ncccc4Br)ccc3F)CCC[C@H]2CS1` (single isomer, unassigned) [Example 173, N-[3-((4aR*,7aS*)-2-amino-4a,5,6,7-tetrahydro-4H-cyclopenta[d][1,3]thiazin-7a-yl)-4-fluorophenyl]-3-bromopyridine-2-carboxamide] the IC50 was 72 nM.
`NC1=N[C@@]2(c3cc(NC(=O)c4ccc(OCc5ccccc5)cn4)ccc3F)CCC[C@H]2CS1` [Example 196] gave an IC50 of 977 nM.
Compound `Cc1cccnc1C(=O)Nc1ccc(F)c([C@]23CCC[C@H]2CSC(N)=N3)c1` [Example 236] has an IC50 of 59 nM.
`NC1=N[C@@]2(c3cc(NC(=O)c4ccc(Br)cn4)ccc3F)CCOC[C@H]2CS1` (single isomer, unassigned) [Example 142, N-[3-((4aS*,8aS*)-2-amino-4a,5,7,8-tetrahydro-4H-6-oxa-3-thia-1-azanaphthalen-8a-yl)-4-fluorophenyl]-5-bromopyridine-2-carboxamide] showed an IC50 of 10 nM.
`CNC(=O)c1ccc(C(=O)Nc2ccc(F)c([C@]34CCC[C@H]3CSC(N)=N4)c2)nc1` [Example 127] was tested, and the IC50 was 214 nM.
`NC1=N[C@@]2(c3cc(NC(=O)c4cnc(OCF)cn4)ccc3F)CCOC[C@H]2CS1` (relative stereo) [Example 80, N-[3-((4aS*,8aS*)-2-amino-4a,5,7,8-tetrahydro-4H-6-oxa-3-thia-1-azanaphthalen-8a-yl)-4-fluorophenyl]-5-fluoromethoxypyrazine-2-carboxamide] showed an IC50 of 8 nM.
Compound `NC1=N[C@@]2(c3cc(NC(=O)c4cnc(OCF)cn4)ccc3F)CO[C@H](CF)[C@H]2CS1` [Example 75, N-[3-((4aS,5,7aS)-2-amino-5-fluoromethyl-4a,5-dihydro-4H-furo[3,4-d][1,3]thiazin-7a-yl)-4-fluorophenyl]-5-fluoromethoxypyrazine-2-carboxamide] has an IC50 of 3 nM.
`CO[C@H]1CC[C@]2(c3cc(NC(=O)c4cnc(C(F)F)cn4)ccc3F)N=C(N)SC[C@@H]2C1` [Example 205] was tested, and the IC50 was 25 nM.
Work on `NC1=N[C@@]2(c3cc(NC(=O)c4ccc(C(F)(F)F)cn4)ccc3F)CCOC[C@H]2CS1` (single isomer, unassigned) [Example 186, N-[3-((4aS*,8aS*)-2-amino-4a,5,7,8-tetrahydro-4H-6-oxa-3-thia-1-azanaphthalen-8a-yl)-fluorophenyl]-5-trifluoromethylpyridine-2-carboxamide] yielded an IC50 of 30 nM.
`NC1=N[C@@]2(c3cc(NC(=O)c4ncccc4F)ccc3F)CCCCC[C@H]2CS1` [Example 251] gave an IC50 of 120 nM.
`NC1=N[C@@]2(c3cc(NC(=O)c4ncc(Br)cn4)ccc3F)CCOC[C@H]2CS1` [Example 199] was tested, and the IC50 was 12 nM.
Work on `NC1=N[C@@]2(c3cc(NC(=O)c4ncc(Cl)cc4Cl)ccc3F)COC[C@H]2CS1` (single isomer, unassigned) [Example 189, N-[3-((4aS*,7aS*)-2-amino-4a,5-dihydro-4H-furo[3,4-d][1,3]thiazin-7a-yl)-4-fluorophenyl]-3,5-dichloropyridine-2-carboxamide] yielded an IC50 of 8 nM.
`C[C@H]1OC[C@]2(c3cc(NC(=O)c4cnc(C(F)F)cn4)ccc3F)N=C(N)SC[C@H]12` (relative stereo) [Example 58, N-[3-((4aS*,5R*,7aS*)-2-amino-5-methyl-4a,5-dihydro-4H-furo[3,4-d][1,3]thiazin-7a-yl)-4-fluorophenyl]-5-difluoromethylpyrazine-2-carboxamide] gave an IC50 of 7 nM.
In the case of `COc1cnc(C(=O)Nc2ccc(F)c([C@]34CCCC[C@H]3CSC(N)=N4)c2)cn1` (single isomer, unassigned) [Example 107, N-[3-((4aR*,8aS*)-2-amino-4,4a,5,6,7,8-hexahydrobenzo[d][1,3]thiazin-8a-yl)-4-fluorophenyl]-5-methoxypyrazine-2-carboxamide], the IC50 is reported as 17 nM.
In the case of `Cc1cnc(C(=O)Nc2ccc(F)c([C@]34CCCC[C@H]3CSC(N)=N4)c2)cn1` [Example 117], the IC50 is reported as 158 nM.
`NC1=N[C@@]2(c3cc(NC(=O)c4cnc(C(F)F)cn4)ccc3F)CCOC[C@H]2CS1` (relative stereo) [Example 79, N-[3-((4aS*,8aS*)-2-amino-4a,5,7,8-tetrahydro-4H-6-oxa-3-thia-1-azanaphthalen-8a-yl)-4-fluorophenyl]-5-difluoromethylpyrazine-2-carboxamide] gave an IC50 of 28 nM.
`COCC#Cc1ccc(C(=O)Nc2ccc(F)c([C@]34CCC[C@H]3CSC(N)=N4)c2)nc1` (single isomer, unassigned) [Example 136, N-[3-((4aR*,7aS*)-2-amino-4a,5,6,7-tetrahydro-4H-cyclopenta[d][1,3]thiazin-7a-yl)-4-fluorophenyl]-5-(3-methoxypropyn-1-yl)-pyridine-2-carboxamide] was tested, and the IC50 was 25 nM.
`C[C@H]1OC[C@]2(c3cc(NC(=O)c4ccc(OC(F)F)cn4)ccc3F)N=C(N)SC[C@H]12` (relative stereo) [Example 59, N-[3-((4aS*,5R*,7aS*)-2-amino-5-methyl-4a,5-dihydro-4H-furo[3,4-d][1,3]thiazin-7a-yl)-4-fluorophenyl]-5-difluoromethoxypyridine-2-carboxamide] showed an IC50 of 2 nM.
For `CO[C@@H]1C[C@H]2CSC(N)=N[C@@]2(c2cc(NC(=O)c3ccc(Cl)cn3)ccc2F)C1` (relative stereo) [Example 99, (+)-N-[3-((4aR*,6R*,7aS*)-2-amino-6-methoxy-4a,5,6,7-tetrahydro-4H-cyclopenta[d][1,3]thiazin-7a-yl)-4-fluorophenyl]-5-chloropyridine-2-carboxamide], the IC50 was 1 nM.
For `NC1=N[C@@]2(c3cc(NC(=O)c4ccc(OCF)cn4)ccc3F)CCC[C@H]2CS1` (relative stereo) [Example 23, N-[3-((4aR*,7aS*)-2-amino-4a,5,6,7-tetrahydro-4H-cyclopenta[d][1,3]thiazin-7a-yl)-4-fluorophenyl]-5-fluoromethoxypyridine-2-carboxamide], the IC50 was 10 nM.
Compound `NC1=N[C@@]2(c3cc(NC(=O)c4ncccc4Cl)ccc3F)CCCC[C@H]2CS1` [Example 258] has an IC50 of 376 nM.
